Results reported in the supplement of paper PMC11451515.

Test system: P12-Ichikawa
Assay: cell viability relative to DMSO control; higher = less cytotoxic
Conditions: 48 h
How it was run: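 Viability is expressed as a percentage of DMSO wells within each plate, and cell-free wells serve as background. Seeding densities in the 1536-well plates (5 μl) were 500 cells/well for NOMO1 or SEM leukemia cells and 1000 cells/well for P12-Ichikawa. Each line was adapted for at least four passages in each medium. Library compounds in DMSO were pin-dosed at 47 μM to 0.79 nM (11 points, threefold), and CellTiter-Glo One luminescence was read after 48 h at 37°C.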

[1] = HPLM + 10% dialyzed FBS, 0.000781 µM
[2] = HPLM + 10% dialyzed FBS, 0.00234 µM
[3] = HPLM + 10% dialyzed FBS, 0.00702 µM
[4] = HPLM + 10% dialyzed FBS, 0.0211 µM
[5] = HPLM + 10% dialyzed FBS, 0.0632 µM
[6] = HPLM + 10% dialyzed FBS, 0.19 µM
[7] = HPLM + 10% dialyzed FBS, 0.569 µM
[8] = HPLM + 10% dialyzed FBS, 1.71 µM
[9] = HPLM + 10% dialyzed FBS, 5.12 µM
[10] = HPLM + 10% dialyzed FBS, 15.4 µM
[11] = HPLM + 10% dialyzed FBS, 46.1 µM
[12] = RPMI 5 mM glucose + 10% FBS, 0.000781 µM
[13] = RPMI 5 mM glucose + 10% FBS, 0.00234 µM
[14] = RPMI 5 mM glucose + 10% FBS, 0.00702 µM
[15] = RPMI 5 mM glucose + 10% FBS, 0.0211 µM
[16] = RPMI 5 mM glucose + 10% FBS, 0.0632 µM
[17] = RPMI 5 mM glucose + 10% FBS, 0.19 µM
[18] = RPMI 5 mM glucose + 10% FBS, 0.569 µM
[19] = RPMI 5 mM glucose + 10% FBS, 1.71 µM
[20] = RPMI 5 mM glucose + 10% FBS, 5.12 µM
[21] = RPMI 5 mM glucose + 10% FBS, 15.4 µM
[22] = RPMI 5 mM glucose + 10% FBS, 46.1 µM
[23] = RPMI 5 mM glucose + 10% dialyzed FBS, 0.000781 µM
[24] = RPMI 5 mM glucose + 10% dialyzed FBS, 0.00234 µM
[25] = RPMI 5 mM glucose + 10% dialyzed FBS, 0.00702 µM
[26] = RPMI 5 mM glucose + 10% dialyzed FBS, 0.0211 µM
[27] = RPMI 5 mM glucose + 10% dialyzed FBS, 0.0632 µM
[28] = RPMI 5 mM glucose + 10% dialyzed FBS, 0.19 µM
[29] = RPMI 5 mM glucose + 10% dialyzed FBS, 0.569 µM
[30] = RPMI 5 mM glucose + 10% dialyzed FBS, 1.71 µM
[31] = RPMI 5 mM glucose + 10% dialyzed FBS, 5.12 µM
[32] = RPMI 5 mM glucose + 10% dialyzed FBS, 15.4 µM
[33] = RPMI 5 mM glucose + 10% dialyzed FBS, 46.1 µM

| Compound | cell viability [1] [%] | cell viability [2] [%] | cell viability [3] [%] | cell viability [4] [%] | cell viability [5] [%] | cell viability [6] [%] | cell viability [7] [%] | cell viability [8] [%] | cell viability [9] [%] | cell viability [10] [%] | cell viability [11] [%] | cell viability [12] [%] | cell viability [13] [%] | cell viability [14] [%] | cell viability [15] [%] | cell viability [16] [%] | cell viability [17] [%] | cell viability [18] [%] | cell viability [19] [%] | cell viability [20] [%] | cell viability [21] [%] | cell viability [22] [%] | cell viability [23] [%] | cell viability [24] [%] | cell viability [25] [%] | cell viability [26] [%] | cell viability [27] [%] | cell viability [28] [%] | cell viability [29] [%] | cell viability [30] [%] | cell viability [31] [%] | cell viability [32] [%] | cell viability [33] [%] |
| --- | --- | --- | --- | --- | --- | --- | --- | --- | --- | --- | --- | --- | --- | --- | --- | --- | --- | --- | --- | --- | --- | --- | --- | --- | --- | --- | --- | --- | --- | --- | --- | --- | --- |
| O=C(CCCCCCC(=O)Nc1ccccc1)NO | 87.9 | 99.3 | 100 | 98.4 | 110 | 109 | 105 | 98.8 | 39 | 5.48 | 3.81 | 91.9 | 97 | 108 | 107 | 110 | 104 | 111 | 96.8 | 23.3 | 4.38 | 3.81 | 92.4 | 100 | 98.1 | 109 | 107 | 103 | 102 | 95.6 | 19.7 | 5.15 | 3.53 |
| Nc1nc(OCc2ccccc2)c2nc[nH]c2n1 | 108 | 110 | 117 | 115 | 120 | 120 | 120 | 118 | 114 | 112 | 113 | 97.9 | 107 | 120 | 117 | 124 | 111 | 114 | 118 | 120 | 120 | 111 | 105 | 114 | 119 | 117 | 121 | 117 | 122 | 120 | 121 | 120 | 119 |
| OCCCNc1cc(-c2ccnc(Nc3cccc(Cl)c3)n2)ccn1 | 98 | 99.8 | 107 | 109 | 110 | 113 | 65.4 | 13.6 | 10.3 | 8.26 | 7.93 | 102 | 105 | 105 | 104 | 118 | 87.9 | 55.6 | 12.1 | 7.63 | 8.26 | 5.79 | 94.9 | 106 | 106 | 119 | 113 | 100 | 43.7 | 11.9 | 10.5 | 11 | 9.06 |
| CNCC(O)C(O)C(O)C(O)CO.O=C(O)c1ccc(-c2cc3cccnc3c(-c3ccc4nonc4c3)n2)cc1 | 105 | 112 | 115 | 106 | 119 | 116 | 120 | 119 | 112 | 117 | 99.4 | 113 | 107 | 122 | 107 | 123 | 127 | 122 | 116 | 121 | 109 | 102 | 104 | 114 | 111 | 104 | 115 | 114 | 119 | 120 | 113 | 104 | 89.4 |
| C[N+](C)([O-])CCNc1ccc(NCC[N+](C)(C)[O-])c2c1C(=O)c1c(O)ccc(O)c1C2=O | 99.5 | 98.6 | 97.6 | 103 | 100 | 90.1 | 83.2 | 63.4 | 21.8 | 28.9 | 15.2 | 101 | 101 | 92.3 | 102 | 82.7 | 72.3 | 62.9 | 42.8 | 7.99 | 13.9 | 7.05 | 84.3 | 80.9 | 95.8 | 96 | 83.7 | 79.3 | 76.2 | 44.9 | 14.8 | 23.6 | 10.6 |
| CO[C@@H]1C(N(C)C(=O)c2ccccc2)C[C@H]2O[C@]1(C)n1c3ccccc3c3c4c(c5c6ccccc6n2c5c31)C(=O)NC4=O (stereo not given in full) | 84.9 | 88.1 | 93.3 | 92.3 | 91 | 97.7 | 99 | 91.2 | 90 | 46 | 25.9 | 78.8 | 87.8 | 88.7 | 90.9 | 97.4 | 87 | 84.8 | 90.2 | 73.4 | 27.1 | 32.5 | 78.9 | 84.4 | 91 | 91.9 | 82.9 | 90.1 | 83 | 84.8 | 87.8 | 23.2 | 32.7 |
| COc1cc([C@@H]2c3cc4c(cc3[C@@H](O[C@@H]3O[C@@H]5CO[C@@H](c6cccs6)O[C@H]5[C@H](O)[C@H]3O)[C@H]3COC(=O)[C@H]23)OCO4)cc(OC)c1O | 89.9 | 91.6 | 92.9 | 93 | 90.1 | 88.2 | 83 | 9.83 | 71.4 | 6.48 | 6.62 | 77.3 | 87.9 | 89.2 | 95.8 | 83.3 | 80.1 | 68 | 6.52 | 55.9 | 5.89 | 4.88 | 84.4 | 91.5 | 88.5 | 82.3 | 82.7 | 74.6 | 73.7 | 8.53 | 59 | 6.51 | 4.64 |
| O=[N+]([O-])c1cnc(Sc2nnc(O)n2-c2ccc3c(c2)OCCO3)s1 | 87.4 | 86.1 | 87.7 | 91 | 91.8 | 93.4 | 94.2 | 97 | 87.8 | 45.8 | 2.64 | 86.5 | 84.3 | 88 | 94.1 | 87.6 | 92.5 | 81.5 | 90 | 81.6 | 3.89 | 1.48 | 83.6 | 78.6 | 80.5 | 84.1 | 87.4 | 89.2 | 83.6 | 79.2 | 79.3 | 1.24 | 0.948 |
| C#Cc1cccc(Nc2ncnc3cc(OC)c(OCCCCCCC(=O)NO)cc23)c1 | 126 | 118 | 121 | 124 | 105 | 69.2 | 29.8 | 8.83 | 6.65 | 6.4 | 2.39 |  |  |  |  |  |  |  |  |  |  |  |  |  |  |  |  |  |  |  |  |  |  |
| COC1=CC=C(C=C1)C2CC(=N/N2C3=CC=C(C=C3)[S+](N)([O-])=O)\C4=CC=CC=C4 (stereo not given) | 95.3 | 91.6 | 102 | 102 | 99.5 | 108 | 108 | 83.8 | 63.1 | 4.53 | 2.18 | 101 | 90 | 94 | 94.4 | 106 | 89.6 | 99.8 | 67.8 | 42 | 3.73 | 1.01 | 85.6 | 96.2 | 96.6 | 100 | 95.9 | 85.9 | 91.4 | 65.8 | 35.8 | 4.09 | 1.97 |
| COC[C@H]1OC(=O)C2=COC3=C2[C@@]1(C)\C4=C(\[C@@H]5CC[C@H](O)[C@@]5(C)C[C@H]4OC(C)=O)C3=O | 105 | 120 | 85.6 | 117 | 120 | 123 | 127 | 123 | 121 | 109 | 68.2 | 104 | 121 | 67.4 | 118 | 114 | 129 | 128 | 124 | 117 | 101 | 81.6 | 100 | 115 | 84.9 | 120 | 131 | 126 | 132 | 130 | 116 | 88.8 | 58.9 |
| CC(C)(C)c1cc(C(=O)O)c(NC(=O)Nc2ccc3[nH]ncc3c2)s1 | 93.9 | 102 | 88.8 | 97.4 | 91.7 | 91.5 | 85.9 | 89.6 | 89.9 | 85.5 | 80.6 | 92.9 | 90.5 | 92.4 | 97.8 | 91.4 | 98.4 | 87.9 | 79.6 | 88.2 | 84.7 | 73.1 | 93.5 | 96.7 | 93 | 97.8 | 97.2 | 88.8 | 90 | 86.2 | 87.8 | 87.3 | 91 |
| O=C1NC(=O)/C(=C/c2cccc(C(F)(F)F)c2)S1 | 107 | 110 | 111 | 110 | 103 | 108 | 104 | 110 | 106 | 98 | 100 | 99.3 | 96.4 | 99.8 | 115 | 94.1 | 94.8 | 98.6 | 98.7 | 100 | 89.4 | 82.9 | 90.3 | 97.4 | 91.9 | 104 | 95.9 | 93.1 | 94.2 | 99.7 | 97.4 | 90.2 | 89.2 |
| Cc1ncc([N+](=O)[O-])n1CCO | 116 | 121 | 126 | 125 | 118 | 123 | 120 | 132 | 124 | 110 | 123 | 106 | 115 | 123 | 127 | 112 | 112 | 127 | 124 | 123 | 116 | 120 | 121 | 129 | 122 | 129 | 135 | 135 | 127 | 125 | 131 | 129 | 128 |
